Laboratory results published in patent US7166620B2 (dated 2007).

Question: With `CO/C=C(/C(=O)OC)c1ccccc1COc1nc(C(F)(F)F)sc1C` as the molecule, how does the melting point read?
Answer: Its melting point is 59 °C.
